Experimental findings from patent US6894045B2, “Tetrahydropurinones and derivatives thereof as corticotropin releasing factor receptor ligands” (Bristol-Myers Squibb Pharma Company, priority 2001, dated 2005) are described below.

Molecules are shown by their SMILES.

Turning to `CCCC(CCC)n1c(CC)nc2c1C(=O)N(C)C(CC)N2c1ccc(Cl)cc1Cl` (stereo not shown) [Example 6, 3-(2,4-dichlorophenyl)-2,8-diethyl-7-(4-heptyl)-1-methyl-1,2,3,7-tetrahydro-6H-purin-6-one], the melting point (as a rule, the temperature of the solid-liquid transition) is 116.5 to 117.5 °C. To `CCCC(CCC)n1c(CC)nc2c1C(=O)N(C)C(C)N2c1ccc(Cl)cc1Cl` (stereo not shown) [Example 5, 3-(2,4-dichlorophenyl)-1,2-dimethyl-8-ethyl-7-(4-heptyl)-1,2,3,7-tetrahydro-6H-purin-6-one] belongs 144 to 145.5 °C; to `CCCC(CCC)n1c(CC)nc2c1C(=O)N(C)CN2c1ccc(Cl)cc1Cl` [Example 2, 3-(2,4-dichlorophenyl)-8-ethyl-7-(4-heptyl)-1-methyl-1,2,3,7-tetrahydro-6H-purin-6-one], 117 to 118 °C.

Compound `CCc1nc2c(n1C(CC)CC)C(=O)N(C)C(C)N2c1ccc(Cl)cc1Cl` (stereo not shown) [Example 3, 3-(2,4-dichlorophenyl)-1,2-dimethyl-8-ethyl-7-(3-pentyl)-1,2,3,7-tetrahydro-6H-purin-6-one] registered a melting point of 135 to 136.5 °C. `CCc1nc2c(n1Cc1ccc(-c3ccccc3)cc1)C(=O)N(C)CN2c1ccc(Cl)cc1Cl` [Example 21, 7-([1,1′-biphenyl]-4-ylmethyl)-3-(2,4-dichlorophenyl)-8-ethyl-1-methyl-1,2,3,7-tetrahydro-6H-purin-6-one] had a melting point of 216 to 217 °C. To `CCCCC(CC)n1c(CC)nc2c1C(=O)N(C)CN2c1ccc(Cl)cc1Cl` (stereo not shown) [Example 49, 3-(2,4-dichlorophenyl)-8-ethyl-7-(3-heptyl)-1-methyl-1,2,3,7-tetrahydro-6H-purin-6-one] belongs 94 to 95 °C; to `CCc1nc2c(n1C(CC)CC)C(=O)N(C)CN2c1ccc(Cl)cc1Cl` [Example 1, 3-(2,4-dichlorophenyl)-8-ethyl-1-methyl-7-(3-pentyl)-1,2,3,7-tetrahydro-6H-purin-6-one], 132 to 133 °C.
